Experimental findings from ChEMBL document CHEMBL6177939, “The role of silicon in drug discovery: a review” (RSC Med Chem, 2024) are described below.

The nature of series [1]: In vivo inhibition of AChE activity in Sprague-Dawley rat brain assessed as effective dose. The series is classed as functional.
A short description of series [2]: Acute toxicity in ip dosed Sprague-Dawley rat assessed as lethal dose. The class given is organism-based. Particulars: in vivo.
For a further series, the target named is Acetylcholinesterase (Homo sapiens, UniProt P22303). Briefly: Binding affinity to AChE (unknown origin) using acetylthiocholine iodide as substrate assessed as inhibition constant by Ellman's method.
Chain of Acetylcholinesterase (P22303 whole entry): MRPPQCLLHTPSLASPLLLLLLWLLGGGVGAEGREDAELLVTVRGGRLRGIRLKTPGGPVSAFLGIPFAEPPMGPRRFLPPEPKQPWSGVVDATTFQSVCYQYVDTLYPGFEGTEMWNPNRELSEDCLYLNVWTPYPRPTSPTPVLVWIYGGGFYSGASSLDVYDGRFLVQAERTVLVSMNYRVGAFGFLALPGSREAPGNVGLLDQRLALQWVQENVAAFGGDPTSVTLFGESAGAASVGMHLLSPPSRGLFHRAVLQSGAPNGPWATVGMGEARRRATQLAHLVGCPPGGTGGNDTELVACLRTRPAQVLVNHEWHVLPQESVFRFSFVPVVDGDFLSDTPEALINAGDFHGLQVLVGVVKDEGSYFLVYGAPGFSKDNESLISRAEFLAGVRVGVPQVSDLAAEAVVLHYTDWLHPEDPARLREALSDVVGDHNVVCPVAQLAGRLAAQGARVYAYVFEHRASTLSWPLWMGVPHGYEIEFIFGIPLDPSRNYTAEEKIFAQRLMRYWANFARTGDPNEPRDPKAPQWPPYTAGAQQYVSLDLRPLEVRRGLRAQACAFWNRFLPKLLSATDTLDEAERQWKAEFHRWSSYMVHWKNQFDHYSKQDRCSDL
A further series concerns Mus musculus. Briefly: Antiinflammatory activity against carrageenin-induced paw edema AKR mouse model assessed as inhibition of CPE at 0.01 micromol/kg, ip relative to control. The class given is functional. Details: scale not given: the % may be the effect or the level left. The note with it: dose 0.01 µmol/kg. (The carrageenan paw model is a standard test of acute inflammation.)

Series [3] is described as follows: Inhibition of soya bean lipoxygenase. The arrangement: species or system Glycine max.
Series [4] has as its system Plasmodium falciparum. Briefly: Antimalarial activity against chloroquine-sensitive Plasmodium falciparum NF54 assessed as reduction in parasite growth. The class given is functional, organism-based.
Series [5] in a line: Antiproliferative activity against human WHCO1 cells assessed as reduction in cell viability incubated for 48 hrs by MTT assay. The series is classed as functional, cell-based. Particulars: WHCO1, 48 h. Background: Tetrazolium dyes change colour on reduction, which living cells bring about.
For series [6], the system named is Plasmodium falciparum. Briefly: Antimalarial activity against […] Plasmodium falciparum Dd2 assessed as reduction in parasite growth. The class given is functional, organism-based.
For the next series, the system named is Tetranychus cinnabarinus. Briefly: Toxicity in Tetranychus cinnabarinus assessed as lethal dose. The class given is organism-based.
A further series has as its system Penicillium chrysogenum. Briefly: Antifungal activity against Penicillium chrysogenum ATCC 20044 assessed as reduction in fungal growth. The class given is functional.
The next series has as its system Aspergillus fumigatus. The series can be described thus: Antifungal activity against Aspergillus fumigatus ATCC 66567 assessed as reduction in fungal growth. The series is classed as functional.
For another series, the system named is Fusarium solani. The series can be described thus: Antifungal activity against Fusarium solani ATCC 20327 assessed as reduction in fungal growth. The class given is functional.
The next series has as its system Trichomonas vaginalis. Briefly: Antiparasitic activity against Trichomonas vaginalis assessed as reduction in parasite growth measured for 24 hrs by MTT assay. The class given is functional, organism-based.
The next series relates to Giardia intestinalis. The series can be described thus: Antiparasitic activity against Giardia intestinalis assessed as reduction in parasite growth incubated for 24 hrs by MTT assay. The series is classed as functional, organism-based. Particulars: Giardia duodenalis.
Series [7] deals with T1, Angiotensin-converting enzyme (Homo sapiens, UniProt P12821). Briefly: Binding affinity to ACE (unknown origin) assessed as inhibition constant.
T1 sequence (P12821 whole entry): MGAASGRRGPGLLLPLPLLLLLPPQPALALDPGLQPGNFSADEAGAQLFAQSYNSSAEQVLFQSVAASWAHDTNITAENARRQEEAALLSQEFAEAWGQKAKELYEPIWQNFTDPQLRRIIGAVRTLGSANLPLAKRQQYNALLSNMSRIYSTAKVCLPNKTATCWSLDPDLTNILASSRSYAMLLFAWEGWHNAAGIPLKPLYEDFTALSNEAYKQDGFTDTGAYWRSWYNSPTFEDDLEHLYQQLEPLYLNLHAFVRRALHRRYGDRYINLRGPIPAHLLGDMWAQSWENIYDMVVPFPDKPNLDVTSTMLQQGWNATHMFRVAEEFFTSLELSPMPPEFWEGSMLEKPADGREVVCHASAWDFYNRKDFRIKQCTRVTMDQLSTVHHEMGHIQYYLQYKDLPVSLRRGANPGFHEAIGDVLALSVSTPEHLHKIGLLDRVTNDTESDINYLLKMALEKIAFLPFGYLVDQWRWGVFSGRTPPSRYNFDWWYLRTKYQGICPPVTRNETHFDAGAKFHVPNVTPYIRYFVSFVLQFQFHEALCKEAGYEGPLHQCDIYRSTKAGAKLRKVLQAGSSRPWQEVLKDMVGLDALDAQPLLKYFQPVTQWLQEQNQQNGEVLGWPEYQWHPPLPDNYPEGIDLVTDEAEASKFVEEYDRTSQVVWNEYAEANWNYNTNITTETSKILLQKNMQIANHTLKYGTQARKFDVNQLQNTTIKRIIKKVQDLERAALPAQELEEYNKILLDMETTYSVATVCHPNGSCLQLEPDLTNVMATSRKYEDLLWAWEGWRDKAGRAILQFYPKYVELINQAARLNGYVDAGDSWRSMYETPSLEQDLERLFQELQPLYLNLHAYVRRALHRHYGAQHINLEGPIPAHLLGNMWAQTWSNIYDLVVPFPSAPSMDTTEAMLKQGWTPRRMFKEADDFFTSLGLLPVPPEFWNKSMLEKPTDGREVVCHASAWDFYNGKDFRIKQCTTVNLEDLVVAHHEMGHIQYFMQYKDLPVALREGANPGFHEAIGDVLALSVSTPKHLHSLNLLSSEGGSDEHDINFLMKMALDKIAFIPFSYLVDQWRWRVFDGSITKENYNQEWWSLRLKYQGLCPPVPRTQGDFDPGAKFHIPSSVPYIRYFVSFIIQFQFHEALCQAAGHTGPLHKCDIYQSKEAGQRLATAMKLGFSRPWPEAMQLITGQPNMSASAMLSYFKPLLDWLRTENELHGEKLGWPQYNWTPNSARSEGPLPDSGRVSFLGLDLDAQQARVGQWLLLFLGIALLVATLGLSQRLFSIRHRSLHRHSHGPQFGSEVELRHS
Series [8] deals with T1, Angiotensin-converting enzyme. The series can be described thus: Inhibition of ACE (unknown origin) using Hip-His-Leu-OH peptide as substrate by fluorimetric analysis.

Structures are written as SMILES. ≈ marks a conversion by molar mass, not a printed value.

Turning to `C[Si](C)(C)c1cccc(C(=O)C(F)(F)F)c1`, the ED50 – broadly, the dose at which the effect has come halfway, by size or by number of responders – in [1] worked out at 2.5 mg/kg. In addition, the LD50 (usually the dose expected to kill half of the subjects tested) in [2] is 180 mg/kg. The Ki (as a rule, the dissociation constant of the complex between target and ligand, obtained from inhibition or displacement) at Acetylcholinesterase stood at 0.047 nM.
In the case of `C[Si](C)(C)CCC[n+]1ccsc1N.[I-]`, the Activity with Mus musculus is 55%. Half-maximal inhibition in series [3] (IC50) required 10 nM.
Consider `C[Si](C)(C)CNc1ccnc2cc(Cl)ccc12`, for which the results for the IC50 (in the series with Plasmodium falciparum [4]; in series [5]; with Plasmodium falciparum [6]) were 248 nM, 4410 nM and 525 nM, respectively.
Turning to `C/C(=C(\OC(=O)C(C)(C)C)c1c(C)c(C)nn1C)c1ccc([Si](C)(C)C)cc1`, the LC50 (as a rule, the concentration lethal to half of the exposed cells or organisms) with Tetranychus cinnabarinus came out at 0.062 ng/mL (≈ 0.000156 µM).
Regarding `COc1ccc(O)c(/C=N/CCC[Si-]234OCC[N+]2(CCO3)CCO4)c1` (stereo unspecified), the MIC in the series with Penicillium chrysogenum, in the series on Aspergillus fumigatus and with Fusarium solani was 80 ng/mL (≈ 0.218 µM) each time.
Consider `CC1C[N+]23CC(C)O[Si-]2(CCC/N=C/c2ccc4c5c6c(ccc25)C=CCC6=CC4)(O1)OC(C)C3` (stereo unspecified), for which the IC50 – broadly, the midpoint of a concentration-inhibition curve – is 1750 nM with Trichomonas vaginalis and 53300 nM with Giardia intestinalis.
On to `CC(C)C[C@H](C[Si](O)(O)CNC(=O)CCc1ccccc1)C(=O)NC(=O)N[C@@H](CC(C)C)C(=O)O`, for which the Ki in [7] amounted to 10 nM.
For the molecule `CC(CS)C(=O)N1C[Si](C)(C)C[C@H]1C(=O)O` (mixture of isomers), the IC50 in series [8] was 43 nM.
